The experiment addresses T1, hTAS1R1 R151A/rTAS1R3 (Homo sapiens, UniProt Q7RTX1, R151A).
T1 construct: UniProtKB number Q7RTX1–1); expressed in transfected cells; host or cells: HEK293T/17 (ATCC CRL-11268)
T1 sequence (Q7RTX1 21-841 R151A): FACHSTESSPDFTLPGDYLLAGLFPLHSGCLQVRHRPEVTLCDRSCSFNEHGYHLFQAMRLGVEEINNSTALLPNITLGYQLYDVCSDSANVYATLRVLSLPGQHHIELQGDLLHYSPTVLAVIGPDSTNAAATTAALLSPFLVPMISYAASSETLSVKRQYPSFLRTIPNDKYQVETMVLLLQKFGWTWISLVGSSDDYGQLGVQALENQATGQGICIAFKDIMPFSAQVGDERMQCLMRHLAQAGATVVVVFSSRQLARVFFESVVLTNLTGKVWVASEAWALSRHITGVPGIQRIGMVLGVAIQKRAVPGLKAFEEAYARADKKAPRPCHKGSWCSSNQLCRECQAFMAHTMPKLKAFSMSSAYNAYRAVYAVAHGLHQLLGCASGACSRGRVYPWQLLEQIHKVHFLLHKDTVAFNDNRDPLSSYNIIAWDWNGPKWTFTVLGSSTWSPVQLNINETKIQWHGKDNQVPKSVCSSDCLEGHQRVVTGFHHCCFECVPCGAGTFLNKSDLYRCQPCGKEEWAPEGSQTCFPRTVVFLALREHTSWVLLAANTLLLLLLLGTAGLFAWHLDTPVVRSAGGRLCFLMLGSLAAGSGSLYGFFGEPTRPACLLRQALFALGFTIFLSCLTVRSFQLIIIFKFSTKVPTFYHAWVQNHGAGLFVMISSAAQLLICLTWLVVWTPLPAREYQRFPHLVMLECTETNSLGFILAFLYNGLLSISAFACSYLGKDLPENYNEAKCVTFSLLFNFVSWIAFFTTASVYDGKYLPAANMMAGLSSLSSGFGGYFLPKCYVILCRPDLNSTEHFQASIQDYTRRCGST
T1 sequence (Q923K1 21-858 partner): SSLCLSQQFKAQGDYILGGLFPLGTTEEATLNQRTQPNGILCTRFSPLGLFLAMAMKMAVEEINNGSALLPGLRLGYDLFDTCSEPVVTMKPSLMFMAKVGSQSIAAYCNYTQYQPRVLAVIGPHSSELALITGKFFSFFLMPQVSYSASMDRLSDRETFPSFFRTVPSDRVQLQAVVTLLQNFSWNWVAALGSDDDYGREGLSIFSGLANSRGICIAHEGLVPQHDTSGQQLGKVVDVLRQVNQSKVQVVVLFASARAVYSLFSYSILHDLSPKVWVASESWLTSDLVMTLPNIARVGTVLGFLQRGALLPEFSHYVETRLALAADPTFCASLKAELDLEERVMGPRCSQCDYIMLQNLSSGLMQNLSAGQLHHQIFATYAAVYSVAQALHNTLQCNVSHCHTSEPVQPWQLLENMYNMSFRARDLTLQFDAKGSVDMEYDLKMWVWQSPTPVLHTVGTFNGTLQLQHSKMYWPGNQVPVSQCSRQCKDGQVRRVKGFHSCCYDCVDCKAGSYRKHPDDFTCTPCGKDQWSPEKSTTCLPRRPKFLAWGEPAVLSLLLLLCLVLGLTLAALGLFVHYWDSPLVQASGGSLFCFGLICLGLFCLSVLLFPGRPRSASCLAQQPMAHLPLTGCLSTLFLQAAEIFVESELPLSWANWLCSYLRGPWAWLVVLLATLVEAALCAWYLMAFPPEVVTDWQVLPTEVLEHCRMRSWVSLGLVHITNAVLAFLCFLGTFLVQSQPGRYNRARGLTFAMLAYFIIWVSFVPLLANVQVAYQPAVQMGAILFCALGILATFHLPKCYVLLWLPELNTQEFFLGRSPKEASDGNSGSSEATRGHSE
In words: Calcium assay, hTAS1R1 mutant co-expressed with rTAS1R3. It counts as cell-based, rat. From the text:
Chimeric Gα proteins, such as Gα16Gust44, Gα16Gi3 or Gα15i2, are widely used in the functional expression of TAS1R receptors ([Backes et al., 2015]; [Suess et al., 2015]; [Toda et al., 2021], [Toda et al., 2013], [Toda et al., 2018]; [Zhang et al., 2008]). Chimeric Gα15i2 (([Toda et al., 2013]), Supplementary data) was generated by replacing the last five residues of the C-terminal tail of rat Gα15i2 (EINLL) (UniProt number G3V6N8; https://www.uniprot.org/uniprot/) with the counterpart sequence from human GNAI2 (DCGLF) (UniProt number P04899-1) and cloning into the pcDNA3.1/Hygro vector (Invitrogen, Thermo Fisher Scientific, Illkirch, France) between the HindIII and NotI restriction sites, resulting in the plasmid pcDNA3.1-Gα15i2. Chimeric Gα16Gust44 construct have already been reported ([Raliou et al., 2011]). Briefly, Gα16Gust44 was generated by replacing the C-terminal of Gα16 with the C-terminal 44 residues of gustducin. As previously described, hTAS1R1 was amplified from human fungiform papillae cDNA and cloned and inserted into pcDNA3 (Invitrogen), generating pcDNA3-TAS1R1-WT (wild-type) ([Raliou et al., 2011]). […] The cDNA coding region of rTAS1R3 was synthesized with optimized-codon usage for human expression (Genewiz) and was cloned and inserted into the mammalian pcDNA4/myc-HisA (Invitrogen) expression vector between the EcoRI and NotI restriction sites, resulting in the plasmid pcDNA4-rTAS1R3. […] The sequence integrity of all the plasmid constructs was verified via automated DNA sequencing (Genewiz).
The hTAS1R1 mutants were co-expressed with the rTAS1R3 subunit in HEK293 cells. […] As a control, the functionality of the mutated receptors was checked after stimulation with S807 (Fig. S8), which interacts with TAS1R1-TMD ([Zhang et al., 2008]).

Each structure is given as a SMILES string.

`N[C@@H](CCC(=O)N[C@@H](CS)C(=O)NCC(=O)O)C(=O)O` [GSH, γ-L-glutamyl-L-cysteinyl-glycine]: the EC50 amounted to 2590 ± 1590 µM. Also, for the setting “R151A”, the “effect of the added compound (1 mM) on the response to L-Glu” value is listed as “did not affect”. Also, under “R151A, GSH”, the “Max ∆F/F0” value came out at 0.31 ± 0.08 and the “R1 = mutant EC50/WT EC50” value is given as 1.0.
For the molecule `CCCC(CCC)NC(=O)c1ccc2c(c1)OCO2` [S807, N-(heptan-4-yl)benzo[d][1,3]dioxole-5-carboxamide, reference compound], the “response to the agonist alone, vs WT” value (R151A) is “strongly affected”.
